{"source": "patent US20220257595A1", "about": "“MACITENTAN FOR USE IN TREATING PORTOPULMONARY HYPERTENSION” (ACTELION PHARMACEUTICALS LTD, priority 2019, published 2022)", "key": {"patients with PoPH [1]": {"tested_on": "patients with PoPH", "experiment": "PORTICO: Borg dyspnea index after 6MWT", "assay_type": "in vivo, human", "details": "DB period", "method": "(iv) 6-minute walk test, including Borg dyspnea index: The 6MWT was performed at Screening, Baseline (Visit 2/Randomization), and then every Visit until EOT-DB or EOT-OL, whichever came last. It is a non-encouraged test that measures the distance walked by the patient in six minutes. It is important that for each individual patient the 6MWT was conducted under the same conditions throughout the study (e.g., same location, same tester, same time of day, with or without nasal oxygen therapy and where applicable with same flow rate as Baseline). The Borg dyspnea index was evaluated after each 6MWT. It rates dyspnea on a scale from 0 to 10.\nDouble-blind treatment period: Changes from baseline to Week 12 in HVPG/HVPG (central review) and Borg dyspnea index (related to the DB treatment period) are summarized by treatment group in the FAS using descriptive statistics."}, "patients with PoPH [2]": {"tested_on": "patients with PoPH", "experiment": "PORTICO safety: hematology (platelets, lymphocytes, neutrophils)", "assay_type": "in vivo", "from_the_text": "For the evaluation of treatment-emergent safety endpoints in the DB phase, the observation period for each individual subject started at the time of the first administration of macitentan or placebo and ended with the start of OL treatment or 30 days after DB treatment discontinuation (whichever occurred first). The safety variables listed below apply to the DB treatment-emergent period and the macitentan treatment-emergent period. The DB treatment-emergent period was defined as the period from the DB treatment start date up to the EOT-DB+30 days or to the EOT-DB for patients entering OL. The macitentan treatment-emergent period was defined as the period from the first intake of macitentan up to end of macitentan treatment (EOMT)+30 days. EOMT was defined as EOT-DB (for patient who received macitentan only in the DB period) or EOT-OL when applicable. For patients entering OLE, the EOMT is EOT-OL. • Treatment-emergent AEs • Treatment-emergent deaths • Treatment-emergent serious adverse events (SAEs) • AEs leading to premature discontinuation of study treatment • Occurrence of post-baseline LFT (ALT and/or AST) abnormalities, classified as: • ≥3×ULN; • ≥5×ULN; • ≥8×ULN; • ≥3×ULN and <5×ULN; • […] and <8×ULN. • Occurrence of post-baseline ALT and/or AST abnormality 3×ULN and concomitant (i.e., at the same time) total bilirubin ≥2×ULN • Occurrence of post-baseline ALT and/or AST abnormality ≥3×ULN and concomitant (i.e., at the same time) total bilirubin ≥2×ULN and increased as compared to baseline • Occurrence of hemoglobin abnormalities, classified as: • ≤80 g/L, • >80 and ≤100 g/L, • decrease from baseline ≥20 g/L and <50 g/L, • decrease from baseline ≥50 g/L, • <100 g/L and concurrent (i.e., at the same time) decrease from baseline ≥20 g/L. • Other treatment-emergent marked laboratory abnormalities • Change from baseline/macitentan baseline to EOT-DB/EOMT in vital signs • Change from baseline/macitentan baseline to EOT-DB/EOMT in laboratory variables • Change from baseline/macitentan baseline to EOT-DB/EOMT in Child-Pugh classification • Change from baseline/macitentan baseline to EOT-DB/EOMT in MELD score"}, "patients with PoPH [3]": {"tested_on": "patients with PoPH", "experiment": "Post-hoc: liver transplant waitlist mortality risk (PVR categories)", "assay_type": "in vivo, human", "method": "Post-Hoc, Exploratory Criteria: • Proportion of patients with NT-proBNP decrease from above 300 ng/L to below this threshold • Odds ratio for improvement to a more favorable liver transplant perioperative risk category • Odds ratio for becoming eligible for the MELD exception • Odds ratio for improvement to a more favorable waitlist mortality risk category\nRisk categories related to liver transplant (transplant perioperative risk classification, MELD exception eligibility and waitlist mortality risk) were analyzed descriptively by treatment group using shift tables from baseline to Week 12 with categories as defined in Example 1.\nLT perioperative risk classification, MELD exception eligibility, and waitlist mortality analyses were performed after the database lock and SDTMs delivery for the Double-Blind period. Number (%) of patients in following categories were summarized and presented in shift tables. The estimated odds ratio for risk improvement and corresponding 95% confidence intervals were obtained from an exact logistic regression (macitentan vs placebo) with factors for treatment and risk category at baseline.\nThe outcomes of PoPH patients who were granted MELD exception in the US were analyzed. […] Age, initial MELD score and initial PVR were significant predictors of waitlist mortality, although their accuracy was limited. The results were illustrated by defining 4 groups depending on their PVR and MELD score: high PVR (PVR>450 dyn·sec·cm^−5), low PVR (PVR ≤450 dyn·sec·cm^−5), high MELD (MELD >12) or low MELD (MELD ≤12)."}, "[4]": {"details": "LL at baseline, DB phase, Safety set, 10 mg"}, "[5]": {"details": "LL at baseline, macitentan DB + OL phase, Macitentan treated set"}, "[6]": {"details": "Normal at baseline, DB phase, Safety set, 10 mg"}, "[7]": {"details": "Normal at baseline, macitentan DB + OL phase, Macitentan treated set"}}}
{"smiles": "CCCNS(=O)(=O)Nc1ncnc(OCCOc2ncc(Br)cn2)c1-c1ccc(Br)cc1", "note": "[macitentan, N-[5-(4-Bromophenyl)-6-[2-[(5-bromo-2-pyrimidinyl)oxy]ethoxy]-4-pyrimidinyl]-N′-propylsulfamide]", "values": [{"measurement": "Change in Borg dyspnea score over time", "setting": "patients with PoPH [1]", "value": "no change"}, {"measurement": "Median decrease in lymphocyte count, baseline to Week 12", "setting": "patients with PoPH [2]; DB phase, macitentan group", "value": "2.8e+08", "unit": "L⁻¹"}, {"measurement": "Median decrease in neutrophil count, baseline to Week 12", "setting": "patients with PoPH [2]; DB phase, macitentan group", "value": "7.2e+08", "unit": "L⁻¹"}, {"measurement": "Median decrease in platelets at Week 12", "setting": "patients with PoPH [2]; DB phase, macitentan group", "value": "1.1e+10", "unit": "L⁻¹"}, {"measurement": "Median lymphocyte count at Week 12", "setting": "patients with PoPH [2]; DB phase, macitentan group", "value": "1.04e+09", "unit": "L⁻¹"}, {"measurement": "Median neutrophil count at Week 12", "setting": "patients with PoPH [2]; DB phase, macitentan group", "value": "2.25e+09", "unit": "L⁻¹"}, {"measurement": "Patients with neutrophil decreases from normal at baseline to <1.5×10^9/L", "setting": "patients with PoPH [2]; DB phase, macitentan group", "value": "6/41"}, {"measurement": "Patients with normal platelets at baseline decreasing to <75×10^9/L", "setting": "patients with PoPH [2]; DB phase, macitentan group", "value": "2/29"}, {"measurement": "Leukocytes (10^9/L) <2.0 (LLL), worst treatment-emergent marked abnormality", "setting": "patients with PoPH [2]; [4]", "value": "2/5"}, {"measurement": "Lymphocytes (10^9/L) <0.5 (LLL), worst treatment-emergent marked abnormality", "setting": "patients with PoPH [2]; [4]", "value": "3/5"}, {"measurement": "Neutrophils (10^9/L) <1.0 (LLL), worst treatment-emergent marked abnormality", "setting": "patients with PoPH [2]; [4]", "value": "0/2"}, {"measurement": "Leukocytes (10^9/L) <2.0 (LLL), worst treatment-emergent marked abnormality", "setting": "patients with PoPH [2]; [5]", "value": "3/7"}, {"measurement": "Lymphocytes (10^9/L) <0.5 (LLL), worst treatment-emergent marked abnormality", "setting": "patients with PoPH [2]; [5]", "value": "6/10"}, {"measurement": "Neutrophils (10^9/L) <1.0 (LLL), worst treatment-emergent marked abnormality", "setting": "patients with PoPH [2]; [5]", "value": "0/2"}, {"measurement": "Leukocytes (10^9/L) <2.0 (LLL), worst treatment-emergent marked abnormality", "setting": "patients with PoPH [2]; [6]", "value": "0/38"}, {"measurement": "Leukocytes (10^9/L) <3.0 −≥ 2.0 (LL), worst treatment-emergent marked abnormality", "setting": "patients with PoPH [2]; [6]", "value": "5/38"}, {"measurement": "Lymphocytes (10^9/L) <0.5 (LLL), worst treatment-emergent marked abnormality", "setting": "patients with PoPH [2]; [6]", "value": "1/38"}, {"measurement": "Lymphocytes (10^9/L) <0.8 −≥ 0.5 (LL), worst treatment-emergent marked abnormality", "setting": "patients with PoPH [2]; [6]", "value": "8/38"}, {"measurement": "Neutrophils (10^9/L) <1.0 (LLL), worst treatment-emergent marked abnormality", "setting": "patients with PoPH [2]; [6]", "value": "2/41"}, {"measurement": "Neutrophils (10^9/L) <1.5 −≥ 1.0 (LL), worst treatment-emergent marked abnormality", "setting": "patients with PoPH [2]; [6]", "value": "4/41"}, {"measurement": "Leukocytes (10^9/L) <2.0 (LLL), worst treatment-emergent marked abnormality", "setting": "patients with PoPH [2]; [7]", "value": "4/76"}, {"measurement": "Leukocytes (10^9/L) <3.0 −≥ 2.0 (LL), worst treatment-emergent marked abnormality", "setting": "patients with PoPH [2]; [7]", "value": "9/76"}, {"measurement": "Lymphocytes (10^9/L) <0.5 (LLL), worst treatment-emergent marked abnormality", "setting": "patients with PoPH [2]; [7]", "value": "2/72"}, {"measurement": "Lymphocytes (10^9/L) <0.8 −≥ 0.5 (LL), worst treatment-emergent marked abnormality", "setting": "patients with PoPH [2]; [7]", "value": "19/72"}, {"measurement": "Neutrophils (10^9/L) <1.0 (LLL), worst treatment-emergent marked abnormality", "setting": "patients with PoPH [2]; [7]", "value": "5/81"}, {"measurement": "Neutrophils (10^9/L) <1.5 −≥ 1.0 (LL), worst treatment-emergent marked abnormality", "setting": "patients with PoPH [2]; [7]", "value": "12/81"}, {"measurement": "Patients with shifts in lymphocyte counts from normal at baseline to <0.8×10^9/L", "setting": "patients with PoPH [2]; any time during DB phase, macitentan group", "value": "9/38"}, {"measurement": "Median decrease from baseline in platelet counts", "setting": "patients with PoPH [2]; combined DB+OL phase", "value": "no median decrease"}, {"measurement": "Median decrease in lymphocyte count, baseline to Week 24", "setting": "patients with PoPH [2]; macitentan DB+OL phase", "value": "2.4e+08", "unit": "L⁻¹"}, {"measurement": "Median decrease in neutrophil count, baseline to Week 24", "setting": "patients with PoPH [2]; macitentan DB+OL phase", "value": "3.3e+08", "unit": "L⁻¹"}, {"measurement": "Median lymphocyte count at Week 24", "setting": "patients with PoPH [2]; macitentan DB+OL phase", "value": "1.05e+09", "unit": "L⁻¹"}, {"measurement": "Median neutrophil count at Week 24", "setting": "patients with PoPH [2]; macitentan DB+OL phase", "value": "2.4e+09", "unit": "L⁻¹"}, {"measurement": "Patients with platelet decreases from normal at macitentan baseline to <75×10^9/L", "setting": "patients with PoPH [2]; macitentan DB+OL phase", "value": 7, "unit": "patients"}, {"measurement": "Patients with shifts in lymphocyte counts from normal at baseline to <0.8×10^9/L", "setting": "patients with PoPH [2]; macitentan DB+OL phase", "value": "21/72"}, {"measurement": "Patients with shifts in neutrophil counts from normal at baseline to notably low", "setting": "patients with PoPH [2]; macitentan DB+OL phase", "value": "17/81"}, {"measurement": "PVR risk categories (waitlist mortality): Week 12 Category 2 (PVR > 450 dyn · sec/cm^5)", "setting": "patients with PoPH [3]; Baseline Category 2 (n = 30), Full analysis set, 10 mg, N = 43", "value": "9 n (%)"}, {"measurement": "Odds of changing to the low waitlist mortality risk group, macitentan vs placebo", "setting": "patients with PoPH [3]; Week 12, exact logistic regression", "value": 10.48, "unit": "times"}, {"measurement": "Patients moving from waitlist high-risk group (PVR >450 dyn·s·cm^−5) to low-risk group", "setting": "patients with PoPH [3]; after 12 weeks, FAS no imputation, 18 patients", "value": 41.9, "unit": "%"}, {"measurement": "PVR risk categories: Between-treatment odds ratio for improvement, OR", "setting": "patients with PoPH [3]; macitentan vs placebo, exact logistic regression, 95% CI 2.381, 66.810, p-value 0.0005", "value": 10.479}]}
